Source: paper PMC5901969 (Pharmaceutical research, 2017)
Where two headings read alike, the source gives them in different places.

How the values were obtained:
CYP3A4 [1] = molecular target: T1, CYP3A4 (Homo sapiens, UniProt P08684); settings: read-out: apparent Km; ethanol as CYP3A4 substrate; cited from earlier work
HIV = type: cell-based; settings: U1 cells, 24 h, p24
[2] = oral 100 mg QD; cited from earlier work
CYP3A4 [3] = molecular target: T1, CYP3A4; settings: cited from earlier work
[4] = system: HIV-infected (U1) cell line; assay: Intracellular DRV concentration-time profile in HIV-infected monocytic; type: in vitro ADME; settings: U1 cells
monocytes = settings: absence of cobicistat; cited from earlier work
[5] = 10 mM and 50 mM ethanol (data not shown)

T1 sequence (P08684 whole entry): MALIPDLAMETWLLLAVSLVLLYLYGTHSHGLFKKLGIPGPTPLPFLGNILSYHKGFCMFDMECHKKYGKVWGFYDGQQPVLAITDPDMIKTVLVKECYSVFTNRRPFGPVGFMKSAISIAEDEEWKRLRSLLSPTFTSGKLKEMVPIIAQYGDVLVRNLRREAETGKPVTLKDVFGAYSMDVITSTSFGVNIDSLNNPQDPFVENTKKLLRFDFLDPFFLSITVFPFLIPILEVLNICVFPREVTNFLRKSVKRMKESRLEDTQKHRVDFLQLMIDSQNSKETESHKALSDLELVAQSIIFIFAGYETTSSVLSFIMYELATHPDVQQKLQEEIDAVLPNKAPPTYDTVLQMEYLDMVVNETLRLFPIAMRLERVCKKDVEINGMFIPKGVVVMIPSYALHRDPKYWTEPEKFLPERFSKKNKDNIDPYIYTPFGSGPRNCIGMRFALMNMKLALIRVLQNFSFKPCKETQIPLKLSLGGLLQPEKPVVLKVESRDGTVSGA

CCO [Ethanol]
Km (CYP3A4 [1]): 10 mM | increase in HIV replication compared to control (HIV; 10 mM ethanol alone): 89% | increase in HIV replication compared to control (HIV; 20 mM ethanol alone): 20.6% | increase in HIV replication compared to control (HIV; 50 mM ethanol alone): 41%

CC(C)c1nc(CN(C)C(=O)N[C@H](C(=O)N[C@@H](Cc2ccccc2)C[C@H](O)[C@H](Cc2ccccc2)NC(=O)OCc2cncs2)C(C)C)cs1 [RTV, Ritonavir]
Cmax [2]: 1000 ng/mL

Cc1c(O)cccc1C(=O)N[C@@H](CSc1ccccc1)[C@H](O)CN1C[C@H]2CCCC[C@H]2C[C@H]1C(=O)NC(C)(C)C [nelfinavir]
decrease in IC50 in response to ethanol exposure (CYP3A4 [3]): 3 fold

CC(C)CN(C[C@@H](O)[C@H](Cc1ccccc1)NC(=O)O[C@H]1CO[C@H]2OCC[C@H]21)S(=O)(=O)c1ccc(N)cc1 [DRV, Darunavir]
decrease in intracellular AUCtot of DRV ([4]; 3 μg/ml DRV, 20 mM ethanol, compared to DRV alone): 11% | intracellular DRV AUCtot, effect of ethanol [4, 5]: no significant change | intracellular DRV Cmax, effect of ethanol [4, 5]: no significant change | intracellular Cmax of DRV, effect of ethanol ([4]; 20 mM ethanol): without altering

COc1cc2c(cc1Cc1cccc(Cl)c1F)c(=O)c(C(=O)O)cn2[C@H](CO)C(C)C [EVG, Elvitegravir]
intracellular AUCtot, effect of ethanol exposure (monocytes): decreases | intracellular Cmax, effect of ethanol exposure (monocytes): decreases
